Experiment: mn = molality of the nth substance listed, in mol/kg
Details: 101 kPa, Liquid; for speed of sound: Pulse-echo method

CC(C)=O [acetone] + CCCC[P+](CCCC)(CCCC)CCCC.[Br-]
m2 = 0
Details	mass density [kg/m3]
288.15 K	795.633
293.15 K	789.952
298.15 K	784.234
303.15 K	778.47
308.15 K	772.661
313.15 K	766.799

CC#N [acetonitrile] + CCCC[P+](CCCC)(CCCC)CCCC.[Br-]
m2 = 0
Details	mass density [kg/m3]
288.15 K	787.275
293.15 K	781.893
298.15 K	776.493
303.15 K	771.067
308.15 K	765.61
313.15 K	760.119
323.15 K	749.031

CCCCO [butan-1-ol] + CCCC[P+](CCCC)(CCCC)CCCC.[Br-]
m2 = 0
Details	mass density [kg/m3]
288.15 K	813.269
293.15 K	809.472
298.15 K	805.659
303.15 K	801.817
308.15 K	797.945
313.15 K	794.037
323.15 K	786.081

CCO [ethanol] + CCCC[P+](CCCC)(CCCC)CCCC.[Br-]
m2 = 0
Details	mass density [kg/m3]
288.15 K	793.628
293.15 K	789.354
298.15 K	785.063
303.15 K	780.745
308.15 K	776.392
313.15 K	772
323.15 K	763.084

CCCO [propan-1-ol] + CCCC[P+](CCCC)(CCCC)CCCC.[Br-]
m2 = 0
Details	mass density [kg/m3]
288.15 K	807.448
293.15 K	803.46
298.15 K	799.452
303.15 K	795.414
308.15 K	791.344
313.15 K	787.227
323.15 K	778.86

CCCC[P+](CCCC)(CCCC)CCCC.[Br-] [tetrabutylphosphonium bromide] + CC#N
Details	mass density, 288.15 K [kg/m3]	mass density, 293.15 K [kg/m3]	mass density, 298.15 K [kg/m3]	mass density, 303.15 K [kg/m3]	mass density, 308.15 K [kg/m3]	mass density, 313.15 K [kg/m3]	mass density, 323.15 K [kg/m3]	speed of sound, 298.15 K [m/s]
m1 = 0.007874	787.927	782.552	777.157	771.738	766.288	760.805	749.733	–
m1 = 0.01066	788.155	782.783	777.389	771.974	766.524	761.045	749.978	–
m1 = 0.01465	788.477	783.109	777.721	772.308	766.862	761.385	750.325	–
m1 = 0.01965	788.885	783.521	778.136	772.724	767.283	761.811	750.761	–
m1 = 0.02448	789.275	783.912	778.532	773.125	767.689	762.22	751.178	–
m1 = 0.0297	789.7	784.34	778.965	773.559	768.128	762.662	751.631	–
m1 = 0.03509	790.132	784.784	779.405	774.005	768.58	763.119	752.095	–
m1 = 0.03974	790.506	785.156	779.78	774.389	768.965	763.508	752.488	1280.1
m1 = 0.04929	791.273	785.93	780.567	775.178	769.76	764.31	753.307	1280.5
m1 = 0.06938	792.879	787.551	782.208	776.834	771.429	765.995	755.023	1281.4
m1 = 0.08849	794.411	789.095	783.76	778.399	773.011	767.591	756.649	1282.2
m1 = 0.1056	795.783	790.48	785.156	779.812	774.43	769.023	758.107	–
m1 = 0.1224	797.155	791.858	786.545	781.208	775.841	770.445	759.553	–
m1 = 0.1338	798.088	792.8	787.494	782.156	776.78	771.4	760.532	1284.1
m1 = 0.1414	798.688	793.405	788.102	782.773	777.428	772.045	761.174	–
m1 = 0.1504	799.412	794.136	788.839	783.514	778.17	772.795	761.945	–
m1 = 0.1671	800.758	795.492	790.206	784.9	779.563	774.2	763.372	1285.6
m1 = 0.1811	801.879	796.621	791.346	786.047	780.72	775.365	764.561	–
m1 = 0.1987	803.297	798.049	792.784	787.498	782.184	776.843	766.064	1287
m1 = 0.2296	805.781	800.553	795.309	790.042	784.751	779.433	768.697	1288.3
m1 = 0.2599	808.22	803.012	797.78	792.541	787.27	781.973	771.277	1289.5
m1 = 0.2925	810.865	805.677	800.473	795.247	789.997	784.72	774.075	1290.8
m1 = 0.3259	813.591	808.424	803.241	798.038	792.811	787.558	776.962	1292.2

Reference: the NIST ThermoML archive (doi:10.1021/je900888e)
